This is an account of results in publication PMC3914206.

What all share (format): binding
The target of assay [1] is T1, panel of 442 kinases (Homo sapiens, UniProt P48730).
T1 construct: purchased KINOMEscan
The note with it: Compound Concentration 10 µM. The text has this: (§1) We assessed the selectivity of members of this scaffold using the KINOMEscan methodology across a near comprehensive panel of 442 kinases [[18,27]].

Assay [2] concerns the target T2, panel of 442 kinases (Homo sapiens, UniProt P49841).
T2 construct: purchased KINOMEscan
The note with it: Compound Concentration 10 µM.
Source text: as §1

For assay [3], the target named is T3, panel of 442 kinases (Homo sapiens, UniProt Q00532).
T3 construct: purchased KINOMEscan
The note with it: Compound Concentration 10 µM.
Source text: as §1

Assay [4] deals with T4, panel of 442 kinases (Homo sapiens, UniProt Q16620).
T4 construct: purchased KINOMEscan
The note with it: kinase TRKB; compound concentration 10 µM.
Source text: as §1

T4 sequence (Q16620 32-822): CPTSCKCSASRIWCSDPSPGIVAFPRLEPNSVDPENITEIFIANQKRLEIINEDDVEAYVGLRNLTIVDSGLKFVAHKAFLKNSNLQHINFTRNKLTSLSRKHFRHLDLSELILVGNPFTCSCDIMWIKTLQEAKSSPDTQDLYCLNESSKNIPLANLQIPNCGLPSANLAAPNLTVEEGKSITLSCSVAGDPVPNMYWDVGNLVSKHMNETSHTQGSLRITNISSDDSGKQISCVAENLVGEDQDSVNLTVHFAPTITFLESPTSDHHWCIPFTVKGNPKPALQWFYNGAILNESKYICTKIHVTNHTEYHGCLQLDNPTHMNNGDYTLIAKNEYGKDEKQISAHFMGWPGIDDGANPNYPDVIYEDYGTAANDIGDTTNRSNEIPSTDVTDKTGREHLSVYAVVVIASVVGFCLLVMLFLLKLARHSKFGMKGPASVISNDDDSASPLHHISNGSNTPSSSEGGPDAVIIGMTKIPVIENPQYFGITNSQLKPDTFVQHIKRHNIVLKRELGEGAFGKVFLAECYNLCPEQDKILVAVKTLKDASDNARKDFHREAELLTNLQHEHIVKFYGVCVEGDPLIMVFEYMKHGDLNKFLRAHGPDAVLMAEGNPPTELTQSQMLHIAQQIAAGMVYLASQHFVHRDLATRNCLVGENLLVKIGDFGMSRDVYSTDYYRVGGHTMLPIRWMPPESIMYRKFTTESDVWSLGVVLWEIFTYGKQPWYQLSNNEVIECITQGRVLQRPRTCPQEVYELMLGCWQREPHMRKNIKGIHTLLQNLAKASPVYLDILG
T1 sequence (P48730 whole entry): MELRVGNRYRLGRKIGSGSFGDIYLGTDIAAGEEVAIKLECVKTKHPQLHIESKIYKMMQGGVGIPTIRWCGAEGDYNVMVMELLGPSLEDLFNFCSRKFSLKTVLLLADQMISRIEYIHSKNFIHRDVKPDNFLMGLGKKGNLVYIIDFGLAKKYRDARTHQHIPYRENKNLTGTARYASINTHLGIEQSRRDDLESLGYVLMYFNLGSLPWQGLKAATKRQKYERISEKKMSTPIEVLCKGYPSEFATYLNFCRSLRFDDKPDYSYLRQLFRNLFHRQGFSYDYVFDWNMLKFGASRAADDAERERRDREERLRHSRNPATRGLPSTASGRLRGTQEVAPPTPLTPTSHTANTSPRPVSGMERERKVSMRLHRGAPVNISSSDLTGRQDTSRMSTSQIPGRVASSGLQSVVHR
T2 sequence (P49841 whole entry): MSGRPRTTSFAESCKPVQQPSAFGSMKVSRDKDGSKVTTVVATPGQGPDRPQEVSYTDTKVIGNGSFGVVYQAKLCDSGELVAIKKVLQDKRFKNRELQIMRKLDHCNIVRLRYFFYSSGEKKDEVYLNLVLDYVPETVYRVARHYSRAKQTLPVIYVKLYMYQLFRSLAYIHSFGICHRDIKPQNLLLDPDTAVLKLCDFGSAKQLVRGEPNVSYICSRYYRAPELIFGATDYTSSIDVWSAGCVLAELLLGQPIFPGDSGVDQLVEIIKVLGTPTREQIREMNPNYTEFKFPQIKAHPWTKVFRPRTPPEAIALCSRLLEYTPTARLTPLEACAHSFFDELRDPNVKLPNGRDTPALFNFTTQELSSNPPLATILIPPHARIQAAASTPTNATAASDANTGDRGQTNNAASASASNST
T3 sequence (Q00532 whole entry): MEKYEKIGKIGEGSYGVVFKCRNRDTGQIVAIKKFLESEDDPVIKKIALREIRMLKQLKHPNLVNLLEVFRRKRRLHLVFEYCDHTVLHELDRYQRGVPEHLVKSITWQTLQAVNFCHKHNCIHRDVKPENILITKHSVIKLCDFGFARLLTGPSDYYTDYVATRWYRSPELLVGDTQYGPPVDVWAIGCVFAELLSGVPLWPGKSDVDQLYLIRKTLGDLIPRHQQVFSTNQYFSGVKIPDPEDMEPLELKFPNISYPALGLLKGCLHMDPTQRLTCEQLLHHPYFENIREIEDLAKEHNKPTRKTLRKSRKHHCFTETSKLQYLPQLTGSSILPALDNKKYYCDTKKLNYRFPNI

As for `CCOc1cc(C(=O)N2CCC(N3CCN(C)CC3)CC2)ccc1Nc1ncc2c(n1)N(C1CCCC1)c1ccccc1C(=O)N2C` [Compound 26], in assay [1], the “KINOMEscan: CSNK1D” value is reported as 100. Moreover, in assay [2], the “KINOMEscan: GSK3B” value stood at 98. Also, the “KINOMEscan: CDKL1” value in assay [3] is 86. For the same compound, the “% Ctrl, TRKB” value in assay [4] came out at 100 % Ctrl.

With `COc1cc(C(=O)N2CCC(N3CCN(C)CC3)CC2)ccc1Nc1ncc2c(n1)N1CCc3cccc(c31)C(=O)N2C` [Compound 24], the “KINOMEscan: CSNK1D” value in assay [1] is recorded as 60. In addition, the “KINOMEscan: GSK3B” value in assay [2] worked out at 72.

Consider `COc1cc(C(=O)N2CCC(N3CCN(C)CC3)CC2)ccc1Nc1ncc2c(n1)N(C)c1ccccc1C(=O)N2C` [15 (LRRK2-IN-1)], for which the “KINOMEscan: CSNK1D” value in assay [1] was found to be 81. Besides, the “KINOMEscan: GSK3B” value in assay [2] was 88. In addition, the “KINOMEscan: CDKL1” value in assay [3] was 78. The “% Ctrl, TRKB” value in assay [4] is on record as 100 % Ctrl.

`COc1cc(C(=O)N2CCC(N3CCN(C)CC3)CC2)ccc1Nc1ncc2c(n1)N(C1CCCC1)c1ccccc1C(=O)N2C` [Compound 25, 11-cyclopentyl-2-((2-methoxy-4-(4-(4-methylpiperazin-1-yl)piperidine-1-carbonyl)phenyl)amino)-5-methyl-5H-benzo[e]pyrimido[5,4-b][1,4]diazepin-6(11H)-one]: the “KINOMEscan: CSNK1D” value in assay [1] amounted to 98. For the same compound, the “KINOMEscan: GSK3B” value in assay [2] stood at 80. Moreover, in assay [3], the “KINOMEscan: CDKL1” value worked out at 100. Besides, the “% Ctrl, TRKB” value in assay [4] came out at 83 % Ctrl.
